Measured values reported in publication PMC10452033, “The Importance of the “Time Factor” for the Evaluation of Inhibition Mechanisms: The Case of Selected HDAC6 Inhibitors” (Biology, 2023).

Assays:
Human HDAC6 = molecular target: T1, Human HDAC6 (Homo sapiens, UniProt Q9UBN7); assay: Yonetani-Theorell analysis of the binding of ITF2357 and ITF3756 to HDAC6; assay type: biochemical; conditions: with respect to the Fluor de Lys substrate; parallel lines in Yonetani-Theorell plots
T1 sequence (Q9UBN7 1-1215): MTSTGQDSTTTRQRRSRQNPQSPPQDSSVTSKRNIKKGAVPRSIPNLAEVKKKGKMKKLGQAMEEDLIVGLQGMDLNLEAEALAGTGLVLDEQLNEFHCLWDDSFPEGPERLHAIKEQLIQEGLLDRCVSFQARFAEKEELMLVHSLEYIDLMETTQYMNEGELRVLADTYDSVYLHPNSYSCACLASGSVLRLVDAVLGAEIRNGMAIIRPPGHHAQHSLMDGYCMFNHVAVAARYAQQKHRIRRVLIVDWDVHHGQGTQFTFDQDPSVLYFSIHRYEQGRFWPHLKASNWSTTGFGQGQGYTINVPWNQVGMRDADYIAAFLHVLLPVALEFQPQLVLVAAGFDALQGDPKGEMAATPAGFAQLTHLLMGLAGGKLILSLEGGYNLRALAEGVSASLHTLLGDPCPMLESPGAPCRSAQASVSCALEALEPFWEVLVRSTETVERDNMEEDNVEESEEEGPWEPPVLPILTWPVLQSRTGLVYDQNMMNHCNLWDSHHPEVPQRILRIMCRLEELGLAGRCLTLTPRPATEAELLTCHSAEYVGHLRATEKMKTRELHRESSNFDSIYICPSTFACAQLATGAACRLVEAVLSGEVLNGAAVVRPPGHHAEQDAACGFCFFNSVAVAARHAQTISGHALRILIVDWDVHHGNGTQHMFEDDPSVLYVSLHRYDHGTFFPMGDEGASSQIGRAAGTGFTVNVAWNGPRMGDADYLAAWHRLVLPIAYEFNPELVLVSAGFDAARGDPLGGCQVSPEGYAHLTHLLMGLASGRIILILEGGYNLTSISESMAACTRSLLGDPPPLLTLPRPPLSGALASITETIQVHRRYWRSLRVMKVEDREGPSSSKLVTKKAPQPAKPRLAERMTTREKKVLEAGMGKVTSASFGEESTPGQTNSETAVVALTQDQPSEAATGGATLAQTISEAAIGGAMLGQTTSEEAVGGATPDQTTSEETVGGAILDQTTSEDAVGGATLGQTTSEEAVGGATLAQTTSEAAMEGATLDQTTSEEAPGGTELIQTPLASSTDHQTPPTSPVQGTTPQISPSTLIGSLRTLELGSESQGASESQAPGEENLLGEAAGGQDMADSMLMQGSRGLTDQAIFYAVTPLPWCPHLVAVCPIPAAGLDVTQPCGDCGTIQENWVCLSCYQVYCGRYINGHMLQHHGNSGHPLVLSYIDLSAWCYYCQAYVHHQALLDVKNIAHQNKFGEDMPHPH
Text: Enzymes. Human HDAC6, as a chimeric form in which the full-length protein is preceded by glutathione S-transferase (GST), was purchased from BPS Bioscience.
In this analysis, the substrate concentration (S) is maintained constant at a sub-saturating concentration, and the concentration of one inhibitor (I) is varied in the presence of different levels of the second (J). The reaction velocity at a given I and J concentration pair (vij) depends on the corresponding inhibition constants (KI and KJ) and an interaction factor γ (Equation (7)). If I and J bind to the same site on the enzyme in a mutually exclusive way, the plots of reciprocal velocity as a function of the varied inhibitor concentration, at different constant levels of the second, yield a set of parallel lines because the interaction factor γ→∞ (Equation (8)). In this case, the common slope (Equation (9)) depends on the velocity of the uninhibited reaction (vo) and the dissociation constant of the varying inhibitor (KI). The dependence of the intercepts on the concentration of the inhibitor kept constant at different levels (J) should be linear (Equation (10)). The initial velocity of the inhibited enzyme, and the inhibition constants KI and KJ can be calculated. […]
The time-course of reactions was monitored to calculate the steady-state velocity from the linear part of the curve. […]

Human HDAC6 (GST-HDAC6) [1] = molecular target: T2, Human HDAC6 (GST-HDAC6) (Homo sapiens, UniProt Q9UBN7); assay: Kinetics of onset of inhibition of HDAC6, progress curves with Fluor de Lys Green substrate; conditions: for slope factor (s): slope factor of the IC50 fit, Equation (1)
T2 sequence (Q9UBN7 1-1215): T1 sequence (Q9UBN7 1-1215)
Text: (§1) Human HDAC6, as a chimeric form in which the full-length protein is preceded by glutathione S-transferase (GST), was purchased from BPS Bioscience.
The activity assay described here is based on the use of the commercially available Fluor de Lys Green substrate, which contains an acetylated lysine residue covalently bound through an amide bond to the amino group of a fluorophore, likely a rhodamine derivative. Deacetylation of the lysine residue makes the amide bond susceptible to trypsin cleavage with release of the fluorophore that is accompanied by fluorescence increase.
For activity assays in the absence of inhibitors, measured fluorescence values at different reaction times, after subtraction of the background fluorescence, were analyzed to determine the initial velocity of reactions from the initial linear part of the curve. […] If the onset and relief of inhibition were sufficiently fast, compared to the time of the assay, the steady-state velocity could be calculated from the linear part of the progress curve at long reaction times. […] Thus, we could calculate apparent values of kon (the second-order rate constant for formation of the enzyme–inhibitor complex) and koff (the first-order rate constant for dissociation of the enzyme–inhibitor complex) for a simple E + I ↔ EI equilibrium from Equation (4). From the observed rates of complex formation and dissociation, an apparent dissociation constant of the complex could be calculated (Equation (5); [31, 40]). kobs = kon^app [I] + koff (4) Ki^app = koff/kon^app (5)
The steady-state velocities were used to estimate the IC50 and cooperativity (if any) from the “slope factor” (s) by calculating the percentage residual activity as a function of inhibitor concentration, and fitting to Equation (1).
From jump-dilution assays of the type shown in Figure 1, right panels, the koff was independently calculated through Equation (2) (or from the linear part of the curves) in the presence of saturating substrate, to minimize the possibility that the inhibitor rebinds to the enzyme after dissociation (Table 1).
Aliquots of reactions were stopped at different times with TSA and subsequently developed, as described in detailed methods in Supplementary information. […] The data were fitted to Equation (2) to determine the steady-state velocity values (vs), which were used to calculate IC50 and kobs (Table 1). The initial velocity was set to the value measured in the absence of the inhibitor.

HDAC6 = conditions: cited from earlier work
Human HDAC6 (GST-HDAC6) [2] = molecular target: T2, Human HDAC6 (GST-HDAC6); assay: Jump-dilution assay, kinetics of relief of inhibition of HDAC6
Text: as §1
From the slope of the lines and the intercepts (insets of Figure 1 E,G), one can calculate the apparent rate constants for formation of the inhibited complex and for its dissociation through Equation (4) (Table 1). Through Equation (5), the apparent dissociation constant of the EI complex could be calculated (Table 1). From jump-dilution assays of the type shown in Figure 1, right panels, the koff was independently calculated through Equation (2) (or from the linear part of the curves) in the presence of saturating substrate, to minimize the possibility that the inhibitor rebinds to the enzyme after dissociation (Table 1).
Panels (A,C,E,G): kinetics of onset of inhibition. […] Aliquots of reactions were stopped at different times with TSA and subsequently developed, as described in detailed methods in Supplementary information. […] The data were fitted to Equation (2) to determine the steady-state velocity values (vs), which were used to calculate IC50 and kobs (Table 1). The initial velocity was set to the value measured in the absence of the inhibitor. […] They were used to determine the mechanism of slow-binding inhibition, and estimates of kon, koff and Ki (Table 1). […]

[3] = test system: zebrafish HDAC6 CD2 (zHDAC6-CD2); design: method as in PMID 36528061; conditions: cited from earlier work
[4] = test system: HDAC6 with respect to all other isoforms, including HDAC10; design: method as in PMID 36528061; conditions: cited from earlier work

With `CCN(CC)Cc1ccc2cc(COC(=O)Nc3ccc(C(=O)NO)cc3)ccc2c1` [ITF2357, reference compound] the mechanism of inhibition (Human HDAC6) was “competitive inhibitor”, the “time after start of reaction at which steady-state velocity was reached” value (Human HDAC6 (GST-HDAC6) [1]; reaction started by addition of the enzyme) was “approximately 15 min” and the “slope factor (s)” value (Human HDAC6 (GST-HDAC6) [1]) was 1.0 ± 0.06.

For `NNC(=O)c1ccc(Cn2cc(-c3ccc(NC4=NCCN4)cc3)nn2)cc1` [Compound 1b], the IC50 (HDAC6) is listed as 329 nM.

With “[R-(E,E)]-7-[4-(Dimethylamino)phenyl]-N-hydroxy-4,6-dimethyl-7-oxo-2,4-heptadienamide [TSA, reference compound]” the apparent koff (Human HDAC6 (GST-HDAC6) [2]; pre-incubated with 10 nM TSA for 90 min, 100-fold dilution, 25 µM Fluor-de-Lys Green) was 0.032 ± 0.008 min‐1 and the “kinetic behaviour of onset and relief of inhibition” value (Human HDAC6 (GST-HDAC6) [1]; progress curves and jump-dilution assays) was “Slow binding”.

For `FC(F)c1nnc(-c2ccc(Cn3cc(-c4ccc(NC5=NCCN5)cc4)nn3)cc2)o1` [Compound 1], the koff (Human HDAC6 (GST-HDAC6) [2]) is given as 0.000108 s⁻¹, the “observed rate constant for the release from the enzyme in jump-dilution assays” value [3] is given as “(9.6 ± 1.1) × 10^−3 min^−1” and the “rate constant for formation of the acyl-hydrazide from Compound 1” value [3] is given as “(6.04 ± 0.22)×10^−3 min^−1”. For the same compound, the IC50 (HDAC6) was 7.7 nM, the Ki (Human HDAC6 (GST-HDAC6) [1]) was 8.9 ± 0.23 nM and the koff (Human HDAC6 (GST-HDAC6) [1]) was 8.33e-05 s⁻¹. The kon (Human HDAC6 (GST-HDAC6) [1]; read-out: kon^app) was 9330 M⁻¹ s⁻¹, the “slope factor (s)” value (Human HDAC6 (GST-HDAC6) [1]) was 0.96 ± 0.04 and the “selectivity for HDAC6 with respect to all other isoforms” value [4] was “greater than 10^4”.

In the case of `O=C(NNC(=O)C(F)F)c1ccc(Cn2cc(-c3ccc(NC4=NCCN4)cc3)nn2)cc1` [Compound 1a], the IC50 (HDAC6) is listed as 1580 nM.
